Patent US20150335647A1, “Methods of Increasing Liver Proliferation” (priority 2009, published 2015)

Experiments:
MAPK p38 activation = settings: cited from earlier work
[1] = tested on: BMP-mediated SMAD 1, 5 and 8 phosphorylation; settings: cited from earlier work
[2] = tested on: type I BMP receptors, namely, ALK2, ALK3, and ALK6; settings: cited from earlier work
BMP signaling = settings: in vivo; cited from earlier work
[3] = Systemic toxicity of dorsomorphin administration for up to 60 days
Method: To provide clinical relevance for the findings discussed above, eight week old mice were injected with an antagonist of BMP signaling. Dorsomorphin was injected for 48 hours prior to, during, and after ⅔ hepatectomy. Specifically, dorsomorphin was injected multiple times at 24 and 12 hours prior to hepatectomy, at the time of hepatectomy, and 12, 24, and 36 hours after hepatectomy.

[4] = tested on: osteogenic differentiation induced by BMP4 or BMP6; settings: induced by BMP4 or BMP6 in vitro; compared with noggin; cited from earlier work
hepatocyte proliferation = assay: BrdU hepatocyte proliferation after 2/3 hepatectomy in mice treated with dorsomorphin; format: in vivo; settings: 8 week old mice, dorsomorphin 10 mg/kg vs saline, injected 24 and 12 h prior to, at, and 12, 24, 36 h after 2/3 hepatectomy; measured at 36 and 48 hours
Method: Animals were used to examine the role of various members of BMP signaling in restoration of liver mass after injury. Mice were subjected to two-thirds (“⅔”) or massive eighty percent (80%) hepatectomy. Surgery was performed on adult mice at least 8 weeks of age. For surgery, mice were anesthetized with 100 mg/kg ketamine and 10 mg/kg xylazine which were injected intraperitoneally. […] This was repeated until the subject was unconscious. Hair was removed from the surgical site using a clipper and the skin was disinfected using aseptic technique and betadyne. The scrubbed area was rinsed with 70% alcohol. To avoid hypothermia, the animal was not wetted more than necessary. An incision was made with a sterile scissors at the level of the xiphiod approximately one centimeter toward the umbilicus. The peritoneum was entered with a scissors and the tip of the xiphoid was excised. For ⅔ hepatectomy, the liver was exteriorized through the incision via gentle pressure on the flanks over an area previously prepped. A 4-0 silk ligature was placed around the exteriorized portion of the liver and tied. The anterior portion of the liver distal to the tie was then excised. A 4-0 proline was used to close the fascia and a 4-0 nylon was used to close the skin in a subcuticular fashion. […]

c1cc(-c2cnn3cc(-c4ccc(OCCN5CCCCC5)cc4)cnc23)ccn1 [Dorsomorphin]
MAPK p38 activation (MAPK p38 activation): without affecting
BMP-mediated SMAD 1, 5 and 8 phosphorylation [1]: block
inhibition of type I BMP receptors ALK2, ALK3, and ALK6 [2]: selectively inhibiting
dorsalization in zebrafish embryos (BMP signaling): effectively promote dorsalization
effect on bone marrow [3]: no effect
effect on growth [3]: no effect
effect on white blood cell count [3]: no effect
systemic toxicity [3]: did not produced systemic toxicity
inhibition of osteogenic differentiation [4]: more potent than that seen with treatment with noggin
hepatocyte proliferation (BrdU incorporation) (hepatocyte proliferation): marked enhancement of hepatocyte proliferation
